Consider one compound from article PMC6934184, “Selective DNA-PKcs inhibition extends the therapeutic index of localized radiotherapy and chemotherapy” (The Journal of Clinical Investigation, 2019).

This assay deals with T1, EPHA7 (Homo sapiens, UniProt Q15375).
T1 construct: purchased Thermo Fisher Scientific (Life Technologies) SelectScreen
Briefly: SelectScreen LanthaScreen. Format: binding. To be noted: read-out: % displacement. The procedure, abridged:
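Percent values come from Thermo SelectScreen profiling of NU5455, combining activity and binding assays. CSF1R was run in Z'LYTE format at Km app ATP, and CAMK1 in Adapta format with ATP listed at 10.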
In general terms: In TR-FRET formats the signal depends on donor and acceptor labels being close together.

SMILES strings stand for the structures.

T1 sequence (Q15375 28-998): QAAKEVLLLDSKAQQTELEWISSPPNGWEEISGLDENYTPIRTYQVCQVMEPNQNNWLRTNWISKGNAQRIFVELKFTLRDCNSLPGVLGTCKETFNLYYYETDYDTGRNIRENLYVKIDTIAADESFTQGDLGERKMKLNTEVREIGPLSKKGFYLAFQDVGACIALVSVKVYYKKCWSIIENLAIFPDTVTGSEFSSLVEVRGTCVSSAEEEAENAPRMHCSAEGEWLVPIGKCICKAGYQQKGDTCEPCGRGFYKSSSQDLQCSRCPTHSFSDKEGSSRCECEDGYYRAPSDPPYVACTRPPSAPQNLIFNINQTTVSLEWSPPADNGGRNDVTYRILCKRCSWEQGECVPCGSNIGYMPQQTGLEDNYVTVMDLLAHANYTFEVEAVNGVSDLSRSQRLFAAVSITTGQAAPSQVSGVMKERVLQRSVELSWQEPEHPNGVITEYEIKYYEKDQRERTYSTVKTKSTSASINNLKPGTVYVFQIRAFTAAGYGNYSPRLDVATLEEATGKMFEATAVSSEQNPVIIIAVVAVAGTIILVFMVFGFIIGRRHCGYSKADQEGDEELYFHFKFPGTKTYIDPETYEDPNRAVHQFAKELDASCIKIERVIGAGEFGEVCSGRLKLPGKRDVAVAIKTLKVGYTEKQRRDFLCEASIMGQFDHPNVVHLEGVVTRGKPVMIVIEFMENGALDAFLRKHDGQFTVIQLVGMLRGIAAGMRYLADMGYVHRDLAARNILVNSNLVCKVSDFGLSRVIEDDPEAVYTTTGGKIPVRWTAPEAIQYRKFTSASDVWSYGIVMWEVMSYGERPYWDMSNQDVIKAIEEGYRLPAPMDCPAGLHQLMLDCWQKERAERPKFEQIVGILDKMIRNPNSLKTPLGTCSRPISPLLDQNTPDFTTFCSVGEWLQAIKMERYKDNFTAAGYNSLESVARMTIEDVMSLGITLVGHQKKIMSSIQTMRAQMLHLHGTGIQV

Consider `CN(C(=O)CN1CCOCC1)c1ccc2sc3c(-c4cccc5c(=O)cc(N6CC7CCC(C6)O7)oc45)cccc3c2c1` [NU5455], for which the inhibition at 1 µM worked out at 1.2%.
